{"source": "patent US9266857B2", "about": "“Bicyclic AZA compounds as muscarinic M1 receptor agonists” (Heptares Therapeutics Limited, priority 2012, dated 2016)", "key": {"[1]": {"biological_target": "T1, human muscarinic M2 receptor (Homo sapiens, UniProt P08172)", "T1 construct": "expressed in transfected cells", "T1 sequence (P08172 1-466)": "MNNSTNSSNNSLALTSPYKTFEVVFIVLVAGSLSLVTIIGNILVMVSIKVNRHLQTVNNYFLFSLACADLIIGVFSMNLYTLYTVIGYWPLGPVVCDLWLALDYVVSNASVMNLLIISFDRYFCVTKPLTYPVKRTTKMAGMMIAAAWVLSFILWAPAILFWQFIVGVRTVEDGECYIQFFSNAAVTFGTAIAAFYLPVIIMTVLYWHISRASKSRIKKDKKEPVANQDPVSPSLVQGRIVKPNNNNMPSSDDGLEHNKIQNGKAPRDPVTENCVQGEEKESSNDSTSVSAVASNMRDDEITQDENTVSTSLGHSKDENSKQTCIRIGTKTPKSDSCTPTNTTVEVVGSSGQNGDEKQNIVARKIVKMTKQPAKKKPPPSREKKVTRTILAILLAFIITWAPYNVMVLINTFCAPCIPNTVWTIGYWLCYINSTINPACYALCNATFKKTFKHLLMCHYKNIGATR", "assay": "Alphascreen Surefire phospho-ERK1/2 functional assay, M2", "format": "cell-based", "procedure": "(§1) ERK1/2 phosphorylation is a downstream consequence of both Gq/11 and Gi/o protein coupled receptor activation, making it highly suitable for the assessment of M1, M3 (Gq/11 coupled) and M2, M4 receptors (Gi/o coupled), rather than using different assay formats for different receptor subtypes. CHO cells stably expressing the human muscarinic M1, M2, M3 or M4 receptor were plated (25K/well) onto 96-well tissue culture plates in MEM-alpha+10% dialysed FBS. Once adhered, cells were serum-starved overnight. Agonist stimulation was performed by the addition of 5 μL agonist to the cells for 5 min (37° C.). Media was removed and 50 μL of lysis buffer added. After 15 min, a 4 μL sample was transferred to 384-well plate and 7 μL of detection mixture added. Plates were incubated for 2 h with gentle agitation in the dark and then read on a PHERAstar plate reader.\n(§2) pEC50 and Emax figures were calculated from the resulting data for each receptor subtype."}, "[2]": {"tested_on": "scopolamine-induced amnesia", "assay": "Passive avoidance, scopolamine-induced amnesia", "format": "in vivo", "procedure": "Studies were carried out as described previously by Foley et al., (2004) Neuropsychopharmacology. In the passive avoidance task scopolamine administration (1 mg/kg, i.p.) at 6 hours following training rendered animals amnesic of the paradigm. A dose range of 3, 10, and 30 mg/kg (po) free base, administered 90 minutes prior to the training period via oral gavage, was examined."}, "[3]": {"biological_target": "T2, human muscarinic M3 receptor (Homo sapiens, UniProt P20309)", "T2 construct": "expressed in transfected cells", "T2 sequence (P20309 whole entry)": "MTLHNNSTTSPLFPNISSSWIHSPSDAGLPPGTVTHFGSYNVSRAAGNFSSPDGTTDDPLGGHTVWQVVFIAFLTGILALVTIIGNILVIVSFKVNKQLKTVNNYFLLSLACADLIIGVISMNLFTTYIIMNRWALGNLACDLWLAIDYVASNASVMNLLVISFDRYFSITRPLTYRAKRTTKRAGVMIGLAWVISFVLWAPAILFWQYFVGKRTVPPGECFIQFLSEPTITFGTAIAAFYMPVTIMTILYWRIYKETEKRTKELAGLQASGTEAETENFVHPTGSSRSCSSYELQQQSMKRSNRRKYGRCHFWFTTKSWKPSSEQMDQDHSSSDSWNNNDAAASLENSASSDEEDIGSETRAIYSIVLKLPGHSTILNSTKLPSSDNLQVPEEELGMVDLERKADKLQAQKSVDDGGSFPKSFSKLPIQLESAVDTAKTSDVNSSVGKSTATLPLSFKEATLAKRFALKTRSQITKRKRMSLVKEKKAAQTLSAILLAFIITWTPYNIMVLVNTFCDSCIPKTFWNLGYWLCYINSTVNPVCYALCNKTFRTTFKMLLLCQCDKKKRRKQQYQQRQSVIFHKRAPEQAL", "assay": "Alphascreen Surefire phospho-ERK1/2 functional assay, M3", "format": "cell-based", "procedure": "as §1, §2"}, "[4]": {"tested_on": "fEPSPs in the CA1 region of rat hippocampal slices", "assay": "CA1 cell firing, fEPSPs in hippocampal slices", "format": "cell-based", "conditions": "CA1 fEPSP amplitude, 6 slices averaged", "procedure": "Rat hippocampal slices of 400 μm thickness were cut in chilled (<4° C.) artificial cerebrospinal fluid (aCSF, composition in mM: NaCl 127, KCl 1.6, KH2PO4 1.24, MgSO4 1.3, CaCl2 2.4, NaHCO3 26 and D-glucose 10) using vibratome. Slices were maintained in oxygenated (95% O2/5% CO2) aCSF at room temperature for at least 1 hr prior to electrophysiological recording, after which they were transferred to an interface chamber and constantly perfused with warmed (30° C.) oxygenated aCSF at a flow rate of 1.5-3 ml.min-1. Schaffer collaterals were then stimulated (1-20 V, 0.1 ms pulse width, 0.033 Hz) with a concentric bipolar electrode to evoke field excitatory post synaptic potentials (fEPSPs) recorded from the stratum radiatum of the CA1 region. Experiments were performed to examine the effect of compound compared to 1 μM carbachol (CCh), on the amplitude of fEPSPs in the CA1 region of rat hippocampal slices. 1 μM CCh was initially applied until steady-state, followed by wash, before performing a five point cumulative concentration-response to compound. Each compound was tested on 6 slices and results averaged. Drug preparation; compound was dissolved in 100% DMSO at a stock concentration of 30 mM, and diluted according to requirements, carbamoylcholine chloride (CCh) was purchased from Sigma (Cat#C4382) and dissolved at a stock concentration of 1 mM in ddH2O."}, "[5]": {"biological_target": "T3, human muscarinic M1 receptor (Homo sapiens, UniProt P11229)", "T3 construct": "expressed in transfected cells", "T3 sequence (P11229 1-460)": "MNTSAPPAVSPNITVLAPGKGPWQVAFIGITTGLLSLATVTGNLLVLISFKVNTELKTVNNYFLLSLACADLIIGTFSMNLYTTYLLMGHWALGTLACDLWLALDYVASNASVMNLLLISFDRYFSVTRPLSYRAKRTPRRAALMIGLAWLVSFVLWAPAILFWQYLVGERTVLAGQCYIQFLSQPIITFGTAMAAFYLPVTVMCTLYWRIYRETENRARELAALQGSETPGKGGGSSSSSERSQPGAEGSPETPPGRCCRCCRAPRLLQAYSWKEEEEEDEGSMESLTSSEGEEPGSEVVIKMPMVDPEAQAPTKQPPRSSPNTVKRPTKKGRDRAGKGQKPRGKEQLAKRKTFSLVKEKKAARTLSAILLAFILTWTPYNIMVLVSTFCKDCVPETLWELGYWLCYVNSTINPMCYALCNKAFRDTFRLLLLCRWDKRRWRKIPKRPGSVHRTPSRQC", "assay": "Alphascreen Surefire phospho-ERK1/2 functional assay, M1", "format": "cell-based", "procedure": "as §1, §2"}, "[6]": {"biological_target": "T4, human muscarinic M4 receptor (Homo sapiens, UniProt P08173)", "T4 construct": "expressed in transfected cells", "T4 sequence (P08173 1-479)": "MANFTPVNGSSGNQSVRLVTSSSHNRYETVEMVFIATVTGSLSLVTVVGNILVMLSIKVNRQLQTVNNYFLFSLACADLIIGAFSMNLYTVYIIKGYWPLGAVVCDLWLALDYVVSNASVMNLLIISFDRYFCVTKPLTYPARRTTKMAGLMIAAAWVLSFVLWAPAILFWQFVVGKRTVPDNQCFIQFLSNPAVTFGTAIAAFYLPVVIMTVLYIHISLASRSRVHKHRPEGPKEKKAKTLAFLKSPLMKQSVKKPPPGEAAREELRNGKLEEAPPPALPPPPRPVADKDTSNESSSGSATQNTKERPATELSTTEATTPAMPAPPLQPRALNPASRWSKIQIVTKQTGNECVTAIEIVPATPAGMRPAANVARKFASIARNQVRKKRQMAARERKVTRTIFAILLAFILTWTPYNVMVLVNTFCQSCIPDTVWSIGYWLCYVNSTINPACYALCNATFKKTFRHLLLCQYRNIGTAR", "assay": "Alphascreen Surefire phospho-ERK1/2 functional assay, M4", "format": "cell-based", "procedure": "as §1, §2"}}}
{"smiles": "CCOC(=O)N1CCC2(CC(N3CCC(C(=O)NC4(C)CCC4)CC3)C2)C1", "note": "(single isomer, unassigned) [Example 9 - Isomer 2, ethyl 2-{4-[(1-methylcyclobutyl)carbamoyl]piperidin-1-yl}-6-azaspiro[3.4]octane-6-carboxylate]", "values": [{"measurement": "EC50", "setting": "[1]; CHO cells stably expressing human M2, phospho-ERK1/2, read-out: pEC50 M2 (converted)", "value": "> 20", "unit": "µM"}, {"measurement": "Emax", "setting": "[1]; CHO, read-out: % Emax cf. ACh, M2", "value": 15, "unit": "%"}, {"measurement": "reversal of scopolamine-induced amnesia of the passive avoidance paradigm", "setting": "[2]; 3, 10 and 30 mg/kg po", "value": "reverse scopolamine-induced amnesia of the paradigm in a dose-dependent manner"}, {"measurement": "ED50", "setting": "[2]; po, 90 minutes prior to training, scopolamine 1 mg/kg i.p., read-out: approximate ED50, reversal of scopolamine-induced amnesia", "value": "~10", "unit": "mg/kg"}, {"measurement": "EC50", "setting": "[3]; CHO cells stably expressing human M3, phospho-ERK1/2, read-out: pEC50 M3 (converted)", "value": "> 20", "unit": "µM"}, {"measurement": "Emax", "setting": "[3]; CHO, read-out: % Emax cf. ACh, M3", "value": 9, "unit": "%"}, {"measurement": "EC50", "setting": "[4]", "value": 5.7, "unit": "µM"}, {"measurement": "EC50", "setting": "[5]; CHO cells stably expressing human M1, phospho-ERK1/2, read-out: pEC50 M1 (converted)", "value": 36.3, "unit": "nM"}, {"measurement": "Emax", "setting": "[5]; CHO, read-out: % Emax cf. ACh, M1, CHO cells stably expressing human M1, relative to ACh", "value": 100, "unit": "%"}, {"measurement": "EC50", "setting": "[6]; CHO cells stably expressing human M4, phospho-ERK1/2, read-out: pEC50 M4 (converted)", "value": 182, "unit": "nM"}, {"measurement": "Emax", "setting": "[6]; CHO, read-out: % Emax cf. ACh, M4, CHO cells stably expressing human M4, relative to ACh", "value": 66, "unit": "%"}]}
